Data published in PubChem BioAssay AID1963976 (Molecular Pharmacology Branch, DTP, NCI, 2024).
pIC50: −log10 of the molar value. Values belong to the compound of their own block, whether it stands above or below them.

Tested on: 435261-313-R-J1-PDC tumor spheroid viability
Assay: Anticancer human tumor 435261-313-R-J1-PDC patient-derived colon adenocarcinoma cell line growth inhibition [PI3K]
Conditions: spheroids with HUVEC and MSC; for pIC50: curve of first compound; for viability, T/C: stronger effect = lower value
How it was run: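 Multi-cell spheroids combine tumor cells with HUVEC and human MSCs, treated with targeted agents alone or with inavolisib, alpelisib, duvelisib or copanlisib. Concentrations fall in half-log steps from at or near clinical Cmax, or from 10 microM where Cmax is unknown; viability read-out.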

[1] = second compound 0.00316 µM, first compound 0.0316 µM
[2] = second compound 0.00316 µM, first compound 0.1 µM
[3] = second compound 0.01 µM, first compound 0.0316 µM
[4] = second compound 0.01 µM, first compound 0.1 µM
[5] = second compound 0.0316 µM, first compound 0.0316 µM
[6] = second compound 0.0316 µM, first compound 0.1 µM
[7] = second compound 0.1 µM, first compound 0.0316 µM
[8] = second compound 0.1 µM, first compound 0.1 µM
[9] = second compound 0.316 µM, first compound 0.0316 µM
[10] = second compound 0.316 µM, first compound 0.1 µM
[11] = second compound 1 µM, first compound 0.0316 µM
[12] = second compound 1 µM, first compound 0.1 µM
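Note: spheroids exposed to compounds for 7 days.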

pIC50 (second compound 0.00316 µM): 6.62 | pIC50 (second compound 0.01 µM): 7.01 | pIC50 (second compound 0.0316 µM): > 7.50 | pIC50 (second compound 0.1 µM): > 7.50 | pIC50 (second compound 0.316 µM): > 7.50 | pIC50 (second compound 1 µM): > 7.50
Structure (SMILES): Cn1nccc1Nc1nccc(-c2ccn(C(CO)c3ccc(Cl)c(F)c3)c(=O)c2)n1 (centres undefined) + COc1c(OCCCN2CCOCC2)ccc2c3n(c(=NC(=O)c4cnc(N)nc4)nc12)CCN3
viability, T/C [1]: 70.2% | viability, T/C [2]: 56.1% | viability, T/C (second compound 0.00316 µM, first compound 0.316 µM): 47.6% | viability, T/C (second compound 0.00316 µM, first compound 1 µM): 32.4% | viability, T/C (second compound 0.00316 µM, first compound 3.16 µM): 34.9% | viability, T/C (second compound 0.00316 µM, first compound 10 µM): 13.1% | viability, T/C [3]: 64.3% | viability, T/C [4]: 48.8% | viability, T/C (second compound 0.01 µM, first compound 0.316 µM): 38.8% | viability, T/C (second compound 0.01 µM, first compound 1 µM): 26.3% | viability, T/C (second compound 0.01 µM, first compound 3.16 µM): 22.4% | viability, T/C (second compound 0.01 µM, first compound 10 µM): 14.3% | viability, T/C [5]: 31.7% | viability, T/C [6]: 28.7% | viability, T/C (second compound 0.0316 µM, first compound 0.316 µM): 17.7% | viability, T/C (second compound 0.0316 µM, first compound 1 µM): 17.9% | viability, T/C (second compound 0.0316 µM, first compound 3.16 µM): 17.3% | viability, T/C (second compound 0.0316 µM, first compound 10 µM): 9.88% | viability, T/C [7]: 17.7% | viability, T/C [8]: 13.6% | viability, T/C (second compound 0.1 µM, first compound 0.316 µM): 10.8% | viability, T/C (second compound 0.1 µM, first compound 1 µM): 8.53% | viability, T/C (second compound 0.1 µM, first compound 3.16 µM): 5.16% | viability, T/C (second compound 0.1 µM, first compound 10 µM): 1.19% | viability, T/C [9]: 9.14% | viability, T/C [10]: 5.37% | viability, T/C (second compound 0.316 µM, first compound 0.316 µM): 3.27% | viability, T/C (second compound 0.316 µM, first compound 1 µM): 2.55% | viability, T/C (second compound 0.316 µM, first compound 3.16 µM): 0.85% | viability, T/C (second compound 0.316 µM, first compound 10 µM): 0.46% | viability, T/C [11]: 4.18% | viability, T/C [12]: 2.97% | viability, T/C (second compound 1 µM, first compound 0.316 µM): 1.36% | viability, T/C (second compound 1 µM, first compound 1 µM): 1.15% | viability, T/C (second compound 1 µM, first compound 3.16 µM): 0.78% | viability, T/C (second compound 1 µM, first compound 10 µM): 0.48%

pIC50 (second compound 0.00316 µM): 7.32 | pIC50 (second compound 0.01 µM): 9.05 | pIC50 (second compound 0.0316 µM): > 9.50 | pIC50 (second compound 0.1 µM): > 9.50 | pIC50 (second compound 0.316 µM): > 9.50 | pIC50 (second compound 1 µM): > 9.50
Structure (SMILES): Cn1ncnc1[C@H]1c2n[nH]c(=O)c3cc(F)cc(c23)N[C@@H]1c1ccc(F)cc1 + COc1c(OCCCN2CCOCC2)ccc2c3n(c(=NC(=O)c4cnc(N)nc4)nc12)CCN3
viability, T/C (second compound 0.00316 µM, first compound 0.000316 µM): 87% | viability, T/C (second compound 0.00316 µM, first compound 0.001 µM): 41.6% | viability, T/C (second compound 0.00316 µM, first compound 0.00316 µM): 76% | viability, T/C (second compound 0.00316 µM, first compound 0.01 µM): 66.4% | viability, T/C [1]: 55% | viability, T/C [2]: 39% | viability, T/C (second compound 0.01 µM, first compound 0.000316 µM): 62.5% | viability, T/C (second compound 0.01 µM, first compound 0.001 µM): 51% | viability, T/C (second compound 0.01 µM, first compound 0.00316 µM): 36.7% | viability, T/C (second compound 0.01 µM, first compound 0.01 µM): 52.7% | viability, T/C [3]: 58.7% | viability, T/C [4]: 35% | viability, T/C (second compound 0.0316 µM, first compound 0.000316 µM): 24.6% | viability, T/C (second compound 0.0316 µM, first compound 0.001 µM): 23% | viability, T/C (second compound 0.0316 µM, first compound 0.00316 µM): 27.1% | viability, T/C (second compound 0.0316 µM, first compound 0.01 µM): 21.2% | viability, T/C [5]: 21.9% | viability, T/C [6]: 22.5% | viability, T/C (second compound 0.1 µM, first compound 0.000316 µM): 17.3% | viability, T/C (second compound 0.1 µM, first compound 0.001 µM): 16.6% | viability, T/C (second compound 0.1 µM, first compound 0.00316 µM): 20.1% | viability, T/C (second compound 0.1 µM, first compound 0.01 µM): 15.8% | viability, T/C [7]: 16.8% | viability, T/C [8]: 14.4% | viability, T/C (second compound 0.316 µM, first compound 0.000316 µM): 8.3% | viability, T/C (second compound 0.316 µM, first compound 0.001 µM): 7.7% | viability, T/C (second compound 0.316 µM, first compound 0.00316 µM): 6.69% | viability, T/C (second compound 0.316 µM, first compound 0.01 µM): 7.31% | viability, T/C [9]: 8.06% | viability, T/C [10]: 7.38% | viability, T/C (second compound 1 µM, first compound 0.000316 µM): 3.97% | viability, T/C (second compound 1 µM, first compound 0.001 µM): 3.84% | viability, T/C (second compound 1 µM, first compound 0.00316 µM): 3.78% | viability, T/C (second compound 1 µM, first compound 0.01 µM): 3.5% | viability, T/C [11]: 4.54% | viability, T/C [12]: 2.9%
